Reference: PubChem BioAssay (NCI)
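Step 1: Grow cells in 96-well plates. Step 2: Expose to compound for 48 hours at 5 concentrations. Step 3: Interpolate endpoints linearly; if unreached, use highest concentration. Here, GI50 denotes the concentration required for 50% inhibition of growth. Definition used: TGI = concentration required for complete inhibition of growth.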

Assays:
Assay in all cases: DTP human tumour cell line panel, 48 h
HOP-62 NSCLC = system: HOP-62 NSCLC
SNB-75 CNS = system: SNB-75 CNS
SK-MEL-2 melanoma = system: SK-MEL-2 melanoma
HCT-116 colon = system: HCT-116 colon
NCI-H522 lung = system: NCI-H522 lung
NCI-H23 lung = system: NCI-H23 lung
K-562 leukemia = system: K-562 leukemia
OVCAR-8 ovarian = system: OVCAR-8 ovarian
UO-31 renal = system: UO-31 renal
NCI/ADR-RES ovarian = system: NCI/ADR-RES ovarian

Compound	TGI (HOP-62 NSCLC) [µM]	TGI (SNB-75 CNS) [µM]	TGI (SK-MEL-2 melanoma) [µM]	TGI (HCT-116 colon) [µM]	TGI (NCI-H522 lung) [µM]	TGI (NCI-H23 lung) [µM]	TGI (K-562 leukemia) [µM]	TGI (OVCAR-8 ovarian) [µM]	TGI (UO-31 renal) [µM]	GI50 (HOP-62 NSCLC) [µM]	GI50 (SK-MEL-2 melanoma) [µM]	GI50 (NCI/ADR-RES ovarian) [µM]	TGI (NCI/ADR-RES ovarian) [µM]	GI50 (NCI-H522 lung) [µM]	GI50 (NCI-H23 lung) [µM]	GI50 (K-562 leukemia) [µM]	GI50 (OVCAR-8 ovarian) [µM]	GI50 (UO-31 renal) [µM]
O=C(/C=C/c1ccc(Cl)c(Cl)c1)c1ccc2ccccc2c1	> 100	> 100	> 100	> 100	> 100	> 100	> 100	> 100	> 100	–	–	–	–	–	–	–	–	–
Nc1ccccc1/C(O)=C1/CCOC1=O	> 100	> 100	> 100	> 100	> 100	> 100	> 100	> 100	> 100	–	–	–	–	–	–	–	–	–
COc1cc(/C=C/c2ccc(OC)c(O)c2)cc(OC)c1	15.4	–	29.8	12.3	4.49	12.5	8.64	36.1	41.9	–	–	–	–	–	–	–	–	–
O=C(CC(=O)n1nc(-c2ccccc2)c(N=Nc2ccc(Cl)cc2)c1-c1ccccc1)Nc1ccc(Cl)cc1	> 100	> 100	> 100	> 55.1	> 100	> 100	> 66.2	> 100	> 100	–	–	–	–	–	–	–	–	–
CNC(=S)/N=C(\N)N(C)C	> 100	> 100	–	> 100	> 100	> 10	> 100	> 100	> 100	–	–	–	–	–	–	–	–	–
COc1cc2[nH]c3c(c2cc1OC)CCN[C@]31CC[C@]2(CC3c4c(cc(OC)c(O)c42)CCN3C)C[C@H]1OC (stereo partly drawn)	48	45.5	–	31.6	–	> 100	23.7	50	–	–	–	–	–	–	–	–	–	–
CCCC1=C(CC)C(C(=O)Nc2c(C)cccc2C)=NC(S)N1 (stereo not drawn)	> 100	> 100	> 100	> 100	> 100	> 100	> 100	> 100	> 100	–	–	–	–	–	–	–	–	–
c1cnn(CN(Cn2cccn2)Cn2cccn2)c1	> 100	> 100	> 100	> 100	> 100	> 100	> 100	> 100	> 100	–	–	–	–	–	–	–	–	–
O=C(O)CNS(=O)(=O)c1ccc(NC(=O)c2ccc([N+](=O)[O-])cc2)cc1	–	> 100	> 100	–	> 100	> 100	> 100	> 100	> 100	–	–	–	–	–	–	–	–	–
S=c1ssc(N2CCOCC2)c1Cl	> 100	–	> 100	–	55.4	> 100	> 100	> 100	> 100	> 100	> 100	43.9	> 100	20.4	29.1	26.3	> 100	> 100
COc1ccc(CN2CC(C)(C)C2=O)c(OC)c1	> 100	> 100	> 100	> 100	> 100	> 100	> 100	> 100	> 100	–	–	–	–	–	–	–	–	–
CC1=CC(C)(C)N=C2SC(c3ccc(N)cc3)=NN12	> 100	> 100	> 100	> 100	> 100	> 100	> 66	> 100	> 100	–	–	–	–	–	–	–	–	–
CCCCNC1CCCCC[C@H]1O (stereo partly drawn)	> 100	> 100	> 100	> 100	> 100	> 100	> 100	> 100	> 100	–	–	–	–	–	–	–	–	–
O=C(Nc1cc(Cl)c(Cl)cc1Cl)C(=O)C1C(=O)NC(=S)NC1=O	> 100	> 100	> 100	> 100	> 100	> 100	> 100	> 100	> 100	–	–	–	–	–	–	–	–	–
COC(=O)C(Cc1nc2ccccc2[nH]c1=O)C(NO)C(=O)Nc1c(Cl)cc([N+](=O)[O-])cc1Cl (stereo not drawn)	> 100	–	82.2	47.9	31.3	61.1	> 100	> 100	> 100	–	–	–	–	–	–	–	–	–
CN1CCc2nc(N)nc(-c3nc(N)nc4c3CN(C)CC4)c2C1	> 100	–	> 100	> 100	> 100	> 100	> 100	> 100	> 100	–	–	–	> 100	–	–	–	–	–
CCOC(=O)/C(C)=C(/O)C(=O)OCC	> 100	> 100	> 100	> 100	> 100	> 100	> 100	> 100	> 100	–	–	–	–	–	–	–	–	–
O=C(CCc1nc(=S)[nH][nH]1)Nc1ccccc1Cl	> 100	> 100	> 100	> 100	> 100	> 100	> 100	> 100	> 100	–	–	–	–	–	–	–	–	–

Compound	TGI (HOP-62 NSCLC) [µM]	TGI (SNB-75 CNS) [µM]	TGI (SK-MEL-2 melanoma) [µM]	TGI (HCT-116 colon) [µM]	TGI (NCI-H522 lung) [µM]	TGI (NCI-H23 lung) [µM]	TGI (K-562 leukemia) [µM]	TGI (OVCAR-8 ovarian) [µM]	TGI (UO-31 renal) [µM]	GI50 (HOP-62 NSCLC) [µM]	GI50 (SK-MEL-2 melanoma) [µM]	GI50 (NCI/ADR-RES ovarian) [µM]	TGI (NCI/ADR-RES ovarian) [µM]	GI50 (NCI-H522 lung) [µM]	GI50 (NCI-H23 lung) [µM]	GI50 (K-562 leukemia) [µM]	GI50 (OVCAR-8 ovarian) [µM]	GI50 (UO-31 renal) [µM]
Cc1nnc(NS(=O)(=O)c2ccc(N=Nc3cc(N=Nc4ccc(S(=O)(=O)Nc5nnc(C)s5)cc4)c4c(NC(=O)C(Cl)Cl)cccc4c3OC(=O)C(Cl)Cl)cc2)s1 (tested in a mixture with another compound)	> 100	82	64.1	41.7	64.7	49.5	77.8	43.7	> 100	–	–	–	–	–	–	–	–	–
CCCN(CCC)C(=O)c1c([N+](=O)[O-])cc(C(F)(F)F)cc1[N+](=O)[O-]	> 100	> 100	> 100	87.4	60.5	73.3	> 100	> 100	> 100	–	–	–	–	–	–	–	–	–
CC(C)c1c(O)c(O)c2c(c1O)C(=O)C(O)=C1C(C)(C)CCC[C@@]12C	> 100	8.12	13.9	11.2	13.4	13.8	9.69	10.2	7	–	–	–	–	–	–	–	–	–
O=C(N/N=C/c1cc(Br)ccc1O)N/N=C/c1cc(Br)ccc1O	> 100	–	–	–	> 100	> 100	> 100	21.1	> 100	–	–	–	–	–	–	–	–	–
CC1=[N+]([O-])c2ccccc2C(=O)C1=O	> 100	> 100	> 100	> 100	71.4	> 100	> 100	> 100	> 100	–	–	–	–	–	–	–	–	–
O=C1C2C3C=C4c5ccccc5N(c5ccccc5)C4(C2C(=O)N1c1ccc([N+](=O)[O-])cc1)[C@H]1C(=O)N(c2ccc([N+](=O)[O-])cc2)C(=O)[C@@H]31 (stereo partly drawn)	> 100	> 100	> 100	> 100	> 100	> 100	> 100	> 100	> 100	–	–	–	–	–	–	–	–	–
c1ccc(C2N3CCCCC3[C@@H]3c4[nH]c5ccccc5c4CCN23)nc1 (stereo partly drawn)	> 100	> 100	> 100	> 100	–	> 100	> 100	> 100	> 100	–	–	–	–	–	–	–	–	–
[N-]=[N+]=C1C(=O)NN=C1c1ccccc1	–	> 100	> 100	> 100	> 100	> 100	> 100	> 100	–	–	–	–	–	–	–	–	–	–
CCOC(=O)C1SC(=Nc2ccc(C)c(C)c2)N=C1C (stereo not drawn)	> 100	> 100	> 100	–	> 100	> 100	> 100	> 100	> 100	–	–	–	–	–	–	–	–	–
Cc1cc(N(CCC#N)CCC#N)ccc1/C=C(\NC(=O)/C=C/c1ccccc1)C(N)=O	> 100	> 100	> 100	> 100	> 100	> 100	> 100	> 100	> 100	–	–	–	–	–	–	–	–	–
CCOC(=O)C(=O)Nc1ccccc1CC	> 100	–	> 100	> 100	> 100	> 100	> 100	> 100	> 100	–	–	–	–	–	–	–	–	–
O=C1c2ccccc2C(=O)C1(O)c1c[nH]c2ccccc12	> 100	> 100	> 100	> 100	> 100	> 100	> 100	> 100	> 100	–	–	–	–	–	–	–	–	–
C=C(C)CCN[Si](c1ccccc1)(c1ccccc1)C(C)(C)C	31.4	82.2	29.2	27.7	44.3	45.3	63.2	36	26.9	–	–	–	–	–	–	–	–	–
CCOC(=O)CCC(=O)C1c2cccc(O)c2C(=O)c2c(O)cc(C)cc21 (stereo not drawn)	2.21	1.76	1.08	1.88	1.33	2.34	10.9	2.01	1.19	–	–	–	–	–	–	–	–	–
COC(=O)C(CC(=O)Nc1ccc(C)cc1)C(=O)C(=O)Nc1c(C(C)C)cccc1C(C)C (stereo not drawn)	> 100	> 100	> 100	> 100	> 100	> 100	> 100	> 100	> 100	–	–	–	–	–	–	–	–	–
CCOC(=O)N[C@@H]1C(CC(=O)OC)O[C@H]2OC(C)(C)O[C@H]21 (stereo partly drawn)	> 100	> 100	> 100	–	–	> 100	> 100	–	> 100	–	–	–	–	–	–	–	–	–
Clc1cc(Cl)c2ns[s+]c2c1Cl	> 100	> 100	> 100	> 100	> 100	85.2	> 100	> 100	> 100	–	–	–	–	–	–	–	–	–
